Source: patent US10494332B2, “Protein tyrosine phosphatases or SHP2 inhibitors and uses thereof” (Indiana University Research and Technology Corporation, priority 2015, dated 2019)
Several values for one entry are separate records, joined by “and”; a condition that tells them apart may be missing. Equal entries are not always repeated. Where two headings read alike, the source gives them in different places.

How the values were obtained:
PTPβ = PTPβ (Homo sapiens, UniProt P23467); assay: PTP inhibition assay (pNPP); format: biochemical
Sequence of PTPβ (P23467 23-1997): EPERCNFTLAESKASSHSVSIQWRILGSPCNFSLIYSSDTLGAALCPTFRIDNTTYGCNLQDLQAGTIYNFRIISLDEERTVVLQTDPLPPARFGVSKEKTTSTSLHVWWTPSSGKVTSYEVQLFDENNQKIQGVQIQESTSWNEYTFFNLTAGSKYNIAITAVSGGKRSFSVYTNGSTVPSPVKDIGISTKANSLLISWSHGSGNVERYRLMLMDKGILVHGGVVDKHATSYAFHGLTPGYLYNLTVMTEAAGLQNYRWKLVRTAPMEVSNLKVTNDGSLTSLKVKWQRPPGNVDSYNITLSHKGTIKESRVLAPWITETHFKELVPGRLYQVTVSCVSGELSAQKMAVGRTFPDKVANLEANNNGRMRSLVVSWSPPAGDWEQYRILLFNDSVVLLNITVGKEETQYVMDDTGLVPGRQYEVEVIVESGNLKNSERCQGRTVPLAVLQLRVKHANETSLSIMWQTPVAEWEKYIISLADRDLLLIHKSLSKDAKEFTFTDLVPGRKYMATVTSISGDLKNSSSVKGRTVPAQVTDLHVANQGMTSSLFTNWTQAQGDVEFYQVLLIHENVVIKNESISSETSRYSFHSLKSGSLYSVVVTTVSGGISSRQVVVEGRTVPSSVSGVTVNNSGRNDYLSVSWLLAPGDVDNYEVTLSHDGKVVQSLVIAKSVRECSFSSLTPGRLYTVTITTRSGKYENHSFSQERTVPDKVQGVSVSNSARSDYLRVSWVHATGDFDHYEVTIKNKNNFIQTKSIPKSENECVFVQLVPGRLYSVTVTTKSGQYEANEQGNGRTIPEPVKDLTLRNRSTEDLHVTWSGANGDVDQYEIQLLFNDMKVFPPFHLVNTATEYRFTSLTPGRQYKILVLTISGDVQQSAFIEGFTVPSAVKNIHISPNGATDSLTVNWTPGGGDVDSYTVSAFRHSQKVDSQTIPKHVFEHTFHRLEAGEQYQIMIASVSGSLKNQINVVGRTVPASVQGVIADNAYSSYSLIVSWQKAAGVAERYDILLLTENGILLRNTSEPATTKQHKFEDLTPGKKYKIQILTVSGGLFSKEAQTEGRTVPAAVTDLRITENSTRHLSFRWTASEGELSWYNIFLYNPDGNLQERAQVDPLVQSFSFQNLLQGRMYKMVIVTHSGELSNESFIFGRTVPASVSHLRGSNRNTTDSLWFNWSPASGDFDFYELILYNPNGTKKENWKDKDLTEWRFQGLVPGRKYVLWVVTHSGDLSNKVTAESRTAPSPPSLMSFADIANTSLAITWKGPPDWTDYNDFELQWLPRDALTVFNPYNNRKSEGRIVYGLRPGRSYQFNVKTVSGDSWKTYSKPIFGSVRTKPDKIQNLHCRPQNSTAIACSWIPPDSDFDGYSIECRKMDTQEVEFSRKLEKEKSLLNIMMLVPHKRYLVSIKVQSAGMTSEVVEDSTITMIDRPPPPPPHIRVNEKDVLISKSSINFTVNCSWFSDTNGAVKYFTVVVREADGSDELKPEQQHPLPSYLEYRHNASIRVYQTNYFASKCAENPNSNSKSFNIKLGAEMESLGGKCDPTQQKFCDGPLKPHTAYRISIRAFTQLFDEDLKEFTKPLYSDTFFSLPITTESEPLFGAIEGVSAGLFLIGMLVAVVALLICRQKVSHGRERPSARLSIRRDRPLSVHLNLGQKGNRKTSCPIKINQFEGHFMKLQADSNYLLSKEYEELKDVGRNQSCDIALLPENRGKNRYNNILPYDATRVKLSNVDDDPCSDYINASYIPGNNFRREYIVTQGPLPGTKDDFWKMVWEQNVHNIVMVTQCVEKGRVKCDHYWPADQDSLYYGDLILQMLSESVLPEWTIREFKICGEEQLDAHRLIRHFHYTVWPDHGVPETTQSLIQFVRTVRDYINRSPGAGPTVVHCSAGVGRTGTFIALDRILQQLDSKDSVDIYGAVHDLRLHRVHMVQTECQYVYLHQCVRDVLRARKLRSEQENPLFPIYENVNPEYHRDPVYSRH

VHX = molecular target: T1, VHX (Homo sapiens, UniProt Q9NRW4); assay: PTP inhibition assay (pNPP); format: biochemical
T1 sequence (Q9NRW4 1-184): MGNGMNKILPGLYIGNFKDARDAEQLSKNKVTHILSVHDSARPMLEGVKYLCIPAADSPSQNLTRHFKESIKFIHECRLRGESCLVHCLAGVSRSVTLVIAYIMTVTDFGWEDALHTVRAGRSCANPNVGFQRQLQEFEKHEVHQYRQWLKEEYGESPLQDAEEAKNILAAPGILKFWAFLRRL

CD45 = molecular target: T2, CD45 (Homo sapiens, UniProt P08575); assay: PTP inhibition assay (pNPP); format: biochemical; details: pNPP at Km, pH 7.0, 25° C.
T2 sequence (P08575 26-1306): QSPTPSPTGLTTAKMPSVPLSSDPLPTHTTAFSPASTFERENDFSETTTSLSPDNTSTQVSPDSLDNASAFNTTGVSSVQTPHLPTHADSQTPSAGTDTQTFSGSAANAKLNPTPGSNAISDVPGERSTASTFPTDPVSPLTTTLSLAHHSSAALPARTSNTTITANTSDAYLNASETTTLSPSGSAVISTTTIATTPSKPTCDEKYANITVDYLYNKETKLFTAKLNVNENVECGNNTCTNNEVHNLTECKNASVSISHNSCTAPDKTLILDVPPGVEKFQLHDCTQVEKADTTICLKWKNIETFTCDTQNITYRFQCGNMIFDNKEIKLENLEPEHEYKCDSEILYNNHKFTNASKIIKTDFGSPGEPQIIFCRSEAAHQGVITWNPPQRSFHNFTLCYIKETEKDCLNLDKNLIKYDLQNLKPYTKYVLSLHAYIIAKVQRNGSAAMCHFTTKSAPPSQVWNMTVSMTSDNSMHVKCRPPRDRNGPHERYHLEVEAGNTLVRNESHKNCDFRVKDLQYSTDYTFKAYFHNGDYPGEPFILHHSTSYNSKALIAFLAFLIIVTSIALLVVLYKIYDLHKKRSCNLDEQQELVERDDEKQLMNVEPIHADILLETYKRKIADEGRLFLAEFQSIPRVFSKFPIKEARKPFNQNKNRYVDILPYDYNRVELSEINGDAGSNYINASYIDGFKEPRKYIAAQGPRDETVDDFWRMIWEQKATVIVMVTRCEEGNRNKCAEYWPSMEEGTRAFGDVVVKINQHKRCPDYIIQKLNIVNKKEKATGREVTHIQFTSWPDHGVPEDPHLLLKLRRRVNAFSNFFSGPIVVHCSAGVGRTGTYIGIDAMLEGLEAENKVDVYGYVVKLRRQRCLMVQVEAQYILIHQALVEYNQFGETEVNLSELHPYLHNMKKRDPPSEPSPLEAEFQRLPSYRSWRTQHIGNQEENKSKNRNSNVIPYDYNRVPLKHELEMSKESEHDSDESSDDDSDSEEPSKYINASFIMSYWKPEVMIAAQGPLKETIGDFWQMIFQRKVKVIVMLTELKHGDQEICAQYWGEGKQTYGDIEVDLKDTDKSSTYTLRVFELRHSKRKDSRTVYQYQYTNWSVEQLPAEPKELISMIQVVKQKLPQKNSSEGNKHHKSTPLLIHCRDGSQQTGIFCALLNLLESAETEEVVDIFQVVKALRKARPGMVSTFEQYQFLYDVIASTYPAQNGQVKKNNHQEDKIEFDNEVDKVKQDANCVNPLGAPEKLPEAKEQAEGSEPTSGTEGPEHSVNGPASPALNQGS

PP5 = molecular target: T3, PP5 (Homo sapiens, UniProt P53041); assay: Phosphatase inhibition assay (pNPP)
T3 sequence (P53041 1-499): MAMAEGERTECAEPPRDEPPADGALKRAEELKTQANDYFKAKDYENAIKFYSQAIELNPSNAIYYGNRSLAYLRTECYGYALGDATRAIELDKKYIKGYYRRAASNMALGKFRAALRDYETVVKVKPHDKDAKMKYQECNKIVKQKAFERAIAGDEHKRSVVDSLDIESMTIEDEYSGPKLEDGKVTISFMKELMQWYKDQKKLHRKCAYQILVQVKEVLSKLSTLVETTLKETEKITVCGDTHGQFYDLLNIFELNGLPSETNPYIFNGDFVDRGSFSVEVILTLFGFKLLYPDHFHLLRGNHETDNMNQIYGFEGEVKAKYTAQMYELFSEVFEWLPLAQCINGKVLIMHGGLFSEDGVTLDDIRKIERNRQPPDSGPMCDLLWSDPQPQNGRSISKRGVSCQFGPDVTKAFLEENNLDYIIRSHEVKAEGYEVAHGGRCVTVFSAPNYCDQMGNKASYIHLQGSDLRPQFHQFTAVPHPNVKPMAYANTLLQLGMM

mPTPA = mPTPA (Mycobacterium tuberculosis, UniProt P9WIA1); assay: biochemical
Sequence of mPTPA (P9WIA1 whole entry): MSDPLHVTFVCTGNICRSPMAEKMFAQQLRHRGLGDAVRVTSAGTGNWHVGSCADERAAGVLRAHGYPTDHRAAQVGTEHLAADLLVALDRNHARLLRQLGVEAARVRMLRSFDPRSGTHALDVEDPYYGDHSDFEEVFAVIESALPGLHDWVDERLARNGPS

Ssu72 = molecular target: T4, Ssu72 (Homo sapiens, UniProt Q9NP77); assay: PTP inhibition assay (pNPP); format: biochemical
T4 sequence (Q9NP77 1-194): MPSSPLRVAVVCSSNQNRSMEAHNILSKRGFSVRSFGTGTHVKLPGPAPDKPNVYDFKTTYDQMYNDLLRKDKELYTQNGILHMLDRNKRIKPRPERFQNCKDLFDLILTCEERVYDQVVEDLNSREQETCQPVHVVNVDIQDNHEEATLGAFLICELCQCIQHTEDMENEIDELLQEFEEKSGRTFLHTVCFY

TcPTP = molecular target: T5, TcPTP (Homo sapiens, UniProt P17706); assay: PTP inhibition assay (pNPP); format: biochemical
T5 sequence (P17706 1-415): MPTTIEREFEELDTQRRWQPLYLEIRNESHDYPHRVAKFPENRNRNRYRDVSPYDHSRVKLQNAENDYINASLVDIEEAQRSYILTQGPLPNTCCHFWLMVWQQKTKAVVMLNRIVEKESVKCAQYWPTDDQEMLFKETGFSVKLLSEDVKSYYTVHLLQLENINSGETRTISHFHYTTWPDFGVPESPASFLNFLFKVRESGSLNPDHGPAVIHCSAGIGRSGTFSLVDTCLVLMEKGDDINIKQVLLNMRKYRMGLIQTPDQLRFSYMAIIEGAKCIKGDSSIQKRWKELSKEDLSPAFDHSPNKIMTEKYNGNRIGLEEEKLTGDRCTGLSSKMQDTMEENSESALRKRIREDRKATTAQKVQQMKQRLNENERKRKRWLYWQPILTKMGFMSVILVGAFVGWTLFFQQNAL

[1] = IC50 VHX (second VHX line of Table 15), pNPP at Km, pH 7.0, 25° C.
[2] = IC50 VHX, pNPP at Km, pH 7.0, 25° C.
[3] = pNPP at Km, pH 7.0, 25° C.; read-out: IC50 VHX
[4] = pNPP at Km, pH 7.0, 25° C.; read-out: IC50 VHX (second VHX line of Table 15)
[5] = pNPP at Km, pH 7.0, 25° C., read-out: IC50 Ssu72
[6] = pNPP at Km, pH 7.0, 25° C., read-out: IC50 TcPTP

Compound | IC50 (PTPβ) [µM] | IC50 (VHX; [1]) [µM] | IC50 (VHX; [2]) [µM] | IC50 (CD45) | IC50 (PP5) [µM] | Ki (mPTPA) [µM] | Mode of mPTPA inhibition (mPTPA) | IC50 (mPTPA; Biochemical potency against target (Ic50, nM) mPTPA) [nM] | IC50 (mPTPA; IC50 mPTPA) | IC50 (VHX; [3]) | IC50 (VHX; [4]) [µM] | IC50 (Ssu72; [5]) [µM] | IC50 (TcPTP; [6]) | IC50 (VHX; read-out: IC50 VHX; pNPP at Km, pH 7.0, 25° C.) [µM] | IC50 (Ssu72; IC50 Ssu72) [µM] | IC50 (TcPTP; IC50 TcPTP) [µM]
Cc1c(Br)cc(NC(=O)CS(=O)(=O)O)cc1Br | > 100 | > 100 | > 100 | > 100 µM | > 100 | 0.056 ± 0.002 | reversible and competitive inhibitor | 160 | 160 nM |  |  |  |  |  |  | 
O=C(CS(=O)(=O)O)Nc1ccc2nc(C(F)(F)F)[nH]c2c1 | > 100 |  |  | > 100 µM | > 100 |  |  |  | 650 nM | > 100 µM | > 100 | > 100 | > 100 µM |  |  | 
O=C(CS(=O)(=O)O)Nc1cnc2ccccc2c1 | > 100 |  |  | > 100 µM | > 100 |  |  |  | 3000 nM | > 100 µM | > 100 | > 100 | > 100 µM |  |  | 
O=C(NCCNC(=O)C(c1ccccc1)S(=O)(=O)O)c1cccc(C(=O)c2ccccc2)c1 (stereo not shown) [Compound L319-02-A60] |  |  |  |  |  |  |  |  |  | > 200 µM |  | > 200 | > 200 µM |  |  | 
O=C(NCc1ccc(NC(=O)C(c2ccccc2)S(=O)(=O)O)cc1)c1ccccc1-c1ccc(C(F)(F)F)cc1 (stereo not shown) [Compound L319-05-A64] |  |  |  |  |  |  |  |  |  |  |  | 170 | 96 µM |  |  | 
CCCCc1ccc(NC(=O)C(=O)Nc2ccccc2NC(=O)C(c2ccccc2)S(=O)(=O)O)cc1 (stereo not shown) [Compound L319-21-M06] |  |  |  |  |  |  |  |  |  | > 50 µM |  | > 50 | > 50 µM |  |  | 
O=C(Nc1cccc(OCc2ccccc2)c1)C(=O)Nc1ccccc1NC(=O)C(c1ccccc1)S(=O)(=O)O (stereo not shown) [Compound L319-21-M52] |  |  |  |  |  |  |  |  |  | > 50 µM |  | > 50 | > 50 µM |  |  | 
Cc1c(Br)cc(NC(=O)C(c2ccccc2)S(=O)(=O)O)cc1Br (stereo not shown) [Compound L319M34] |  | > 200 | 92 |  |  |  |  |  | 196 nM |  |  |  |  | 92 | > 100 | > 100
O=C(Nc1ccc(OCc2ccccc2)c(Cl)c1)C(c1ccccc1)S(=O)(=O)O (stereo not shown) [Compound L319M50] |  |  |  |  |  |  |  |  |  | > 100 µM |  | 66.6 | > 100 µM |  |  | 
O=C(Nc1cccc(OCc2ccccc2)c1)C(c1ccccc1)S(=O)(=O)O (stereo not shown) [Compound L319M52] | > 200 |  |  | > 200 µM | > 200 |  |  |  | 560 nM | 170 µM and > 100 µM |  | 97.6 | 170 µM and > 100 µM |  |  | 
O=C(Nc1ccc2nc(C(F)(F)F)[nH]c2c1)C(c1ccccc1)S(=O)(=O)O (stereo not shown) [Compound L319M54] | > 200 |  |  | > 200 µM | > 200 |  |  |  | 265 nM and 270 nM | > 200 µM | > 200 | > 200 | > 200 µM |  |  | 
O=C(Nc1ccc(N2CCOCC2)cc1)C(c1ccccc1)S(=O)(=O)O (stereo not shown) [Compound L319M68] | > 200 |  |  | > 200 µM | > 200 | 0.13 |  |  | 250 nM | > 200 µM | > 200 | > 200 | > 200 µM |  |  | 
O=C(Nc1cnc2ccccc2c1)C(c1ccccc1)S(=O)(=O)O (stereo not shown) [Compound L319M88] | > 200 |  |  | > 200 µM | > 200 |  |  |  | 143 nM | > 200 µM | > 200 | > 200 | > 200 µM |  |  | 
O=C(Nc1ccc(-c2ccccc2)cc1)C(c1ccccc1)S(=O)(=O)O (stereo not shown) [Compound L319N08] |  |  | > 200 |  |  |  |  |  |  |  |  |  |  |  | 72.9 | > 200
O=C(Nc1nc2ccccc2s1)C(c1ccccc1)S(=O)(=O)O (stereo not shown) [Compound L319N15] | > 200 |  |  | > 200 µM and 180 µM | > 200 |  |  |  | 194 nM | > 200 µM | > 200 | 69 | > 200 µM |  |  | 
O=C(C(c1ccccc1)S(=O)(=O)O)N1CCC(Cc2ccccc2)CC1 (stereo not shown) [Compound L319N46] | > 200 |  |  | > 200 µM | > 200 |  |  |  | > 200000 nM | > 200 µM |  | > 200 | > 200 µM |  |  | 
O=C(C(c1ccccc1)S(=O)(=O)O)N1CCC(c2ccc(Cl)c(Cl)c2)CC1 (stereo not shown) [Compound L319N47] | 50 |  |  | 140 µM | > 200 |  |  |  | 11300 nM | 150 µM |  | > 200 | 160 µM |  |  | 
O=C(C(c1ccccc1)S(=O)(=O)O)N1CCCC2CCCCC21 (stereo not shown) [Compound L319N53] | > 200 |  |  | > 200 µM | > 200 |  |  |  | > 200000 nM | > 200 µM |  | > 200 | > 200 µM |  |  | 
O=C(CS(=O)(=O)O)Nc1nc2ccc([N+](=O)[O-])cc2s1 [Compound L335N15-07] | > 100 |  |  | > 100 µM | > 100 |  |  |  |  | > 100 µM | > 100 | > 100 | > 100 µM |  |  | 
O=C(CS(=O)(=O)O)Nc1nc2ccccc2s1 [Compound L335N15] | > 100 |  |  | > 100 µM | > 100 |  |  |  | 263 nM | > 100 µM | > 100 | > 100 | > 100 µM |  |  | 
